For data set [1], the target named is T1, Nuclear receptor ROR-gamma (Homo sapiens, UniProt P51449).
T1 sequence (P51449 whole entry): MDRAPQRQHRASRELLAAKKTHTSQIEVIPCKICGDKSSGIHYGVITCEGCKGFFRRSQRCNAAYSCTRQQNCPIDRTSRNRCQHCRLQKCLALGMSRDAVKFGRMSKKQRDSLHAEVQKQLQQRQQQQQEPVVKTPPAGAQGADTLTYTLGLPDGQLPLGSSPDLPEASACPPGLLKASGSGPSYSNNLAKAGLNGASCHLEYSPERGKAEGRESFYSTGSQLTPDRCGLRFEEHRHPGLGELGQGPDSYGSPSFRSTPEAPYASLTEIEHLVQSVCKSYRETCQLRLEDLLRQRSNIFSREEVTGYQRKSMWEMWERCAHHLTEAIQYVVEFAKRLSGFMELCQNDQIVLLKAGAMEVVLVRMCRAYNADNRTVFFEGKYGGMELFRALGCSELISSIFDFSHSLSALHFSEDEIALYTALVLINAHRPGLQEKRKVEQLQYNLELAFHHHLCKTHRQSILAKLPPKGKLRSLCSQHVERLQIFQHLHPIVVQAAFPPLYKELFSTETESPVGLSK
Nature of the data set: Inverse agonist activity at human RORgammat by mammalian 1-hybrid assay.

Data set [2] concerns the target T2, Nuclear receptor ROR-beta (Homo sapiens, UniProt Q92753).
T2 sequence (Q92753 whole entry): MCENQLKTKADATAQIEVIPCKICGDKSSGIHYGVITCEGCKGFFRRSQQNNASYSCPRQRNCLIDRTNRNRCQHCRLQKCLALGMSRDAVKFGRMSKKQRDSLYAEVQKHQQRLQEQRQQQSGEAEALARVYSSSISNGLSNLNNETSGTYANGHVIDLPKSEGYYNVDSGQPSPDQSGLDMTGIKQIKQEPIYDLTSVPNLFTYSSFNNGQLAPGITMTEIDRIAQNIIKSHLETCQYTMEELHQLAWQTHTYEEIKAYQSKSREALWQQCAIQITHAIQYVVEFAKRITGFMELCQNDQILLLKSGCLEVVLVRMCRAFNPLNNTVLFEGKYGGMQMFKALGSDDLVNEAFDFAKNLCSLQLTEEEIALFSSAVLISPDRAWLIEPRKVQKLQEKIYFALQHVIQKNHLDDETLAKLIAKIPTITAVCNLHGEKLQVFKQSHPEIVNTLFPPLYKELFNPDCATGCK
Nature of the data set: Inverse agonist activity at human RORbeta assessed as dissociation constant by thermofluor assay.

The target of data set [3] is T3, Nuclear receptor subfamily 1 group I member 2 (Homo sapiens, UniProt O75469).
T3 sequence (O75469 whole entry): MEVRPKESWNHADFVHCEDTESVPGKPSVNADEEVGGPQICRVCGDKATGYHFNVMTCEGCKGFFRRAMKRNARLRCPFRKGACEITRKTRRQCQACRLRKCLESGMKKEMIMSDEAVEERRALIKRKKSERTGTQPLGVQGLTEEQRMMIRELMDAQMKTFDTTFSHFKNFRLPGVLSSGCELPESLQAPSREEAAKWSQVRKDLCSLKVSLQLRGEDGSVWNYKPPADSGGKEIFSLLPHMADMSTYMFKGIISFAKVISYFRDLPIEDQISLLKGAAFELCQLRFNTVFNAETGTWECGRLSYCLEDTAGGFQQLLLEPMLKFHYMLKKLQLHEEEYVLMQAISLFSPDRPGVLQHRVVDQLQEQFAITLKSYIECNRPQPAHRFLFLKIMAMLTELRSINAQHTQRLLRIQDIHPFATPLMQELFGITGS
Nature of the data set: Activation of human PXR at 1 uM relative to control. The class given is toxicity.

In data set [4] the target is T4, PXR (Homo sapiens, UniProt O75469).
T4 sequence (O75469 whole entry): T3 sequence (O75469 whole entry)
Nature of the data set: Activation of human PXR at 5 uM relative to control. The class given is toxicity. Conditions: read-out: Activity; call rule not given here.

Data set [5] deals with T1, Nuclear receptor ROR-gamma. The experiment in a line: Inverse agonist activity at RORgammat in human whole blood assessed as IL-17A production incubated for 1 hrs by ELISA analysis. The class given is tissue-based.
Data set [6] in a line: Aqueous solubility of the compound at pH 7. Type of data set: physicochemical. Conditions: aqueous solution.
Data set [7] in a line: Aqueous solubility of the compound at pH 2. The class given is physicochemical. Conditions: aqueous solution.
The nature of data set [8]: Solubility of compound in SGF. The class given is physicochemical.
In data set [9] the target is T4, PXR. The experiment in a line: Activation of human PXR at 10 uM relative to control. The class given is toxicity. Conditions: read-out: Activity.
A short description of data set [10]: Solubility of compound in FaSSIF. The class given is physicochemical.
The target of data set [11] is Cytochrome P450 3A4 (Homo sapiens, UniProt P08684). The experiment in a line: Induction of CYP3A4 in human hepatocytes at 10 uM relative to control. Type of data set: ADME, cell-based, Hepatocyte.
Chain of Cytochrome P450 3A4 (P08684 whole entry, the tested form may be a part): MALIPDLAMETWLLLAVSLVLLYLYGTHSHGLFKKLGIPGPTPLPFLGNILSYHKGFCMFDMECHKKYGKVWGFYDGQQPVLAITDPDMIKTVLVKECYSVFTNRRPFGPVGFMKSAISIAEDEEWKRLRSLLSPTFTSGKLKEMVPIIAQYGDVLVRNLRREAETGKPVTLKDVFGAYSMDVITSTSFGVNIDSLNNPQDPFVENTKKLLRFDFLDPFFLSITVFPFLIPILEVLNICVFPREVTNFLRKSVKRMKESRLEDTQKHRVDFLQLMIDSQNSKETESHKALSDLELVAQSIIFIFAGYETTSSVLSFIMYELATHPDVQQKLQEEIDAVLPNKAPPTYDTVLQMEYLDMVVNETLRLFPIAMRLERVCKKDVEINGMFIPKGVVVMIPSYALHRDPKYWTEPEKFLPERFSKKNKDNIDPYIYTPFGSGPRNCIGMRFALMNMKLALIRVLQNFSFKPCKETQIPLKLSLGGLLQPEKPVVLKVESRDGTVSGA
In data set [12] the target is T1, Nuclear receptor ROR-gamma. The experiment in a line: Inverse agonist activity at N-terminal his-tagged wild type human RORgammat LBD domain expressed in Escherichia coli assessed as dissociation constant by thermofluor assay.
The nature of data set [13]: Drug uptake in male rat plasma at 50 mg/kg, po after 5 days. Conditions: in vivo, 120 h, time 5 day. Type of data set: ADME, organism-based.
Data set [14] is described as follows: Cmax in male Sprague-Dawley rat at 1 mg/kg, iv or 5 mg/kg, po measured 24 hrs post dose by LC-MS/MS analysis. The class given is ADME, organism-based. Conditions: in vivo.

In brackets after ≈: the same amount, converted by molar mass.

In the case of `Cc1c(S(N)(=O)=O)cc(-c2ccc(S(=O)(=O)NC(C)(C)C)cc2)n1CC1CCCCC1`, the IC50 in data set [1] is 1780 nM.
For the compound `C[C@H]1C[C@@H](F)CCN1C(=O)c1nc(C(=O)NCC(C)(C)O)sc1-c1ccc(C(O)(C(F)(F)F)C(F)(F)F)c(Cl)c1Cl`, the Kd in data set [2] stood at 1000 nM. Further, the Activity in [3] is on record as 14%. In addition, the activity at 5 µM in data set [4] was determined as 40%. Also, in data set [5], the IC50 stood at 210 nM. Besides, the solubility in data set [6] and in data set [7] was < 4 µM in each case.
Turning to `C[C@H]1CCCCN1C(=O)c1nc(C(=O)NCC(C)(C)O)sc1-c1ccc(C(O)(C(F)(F)F)C(F)(F)F)cc1C(F)F`, the solubility in data set [8] is < 4 µM; in data set [6], < 4 µM; in data set [10], 14 µM (≈ 8.65 µg/mL); in [7] it was < 4 µM. Besides, the Kd in data set [2] is 850 nM. In data set [3], this compound yielded an Activity of 28%. Besides, in [9], the activity at 10 µM amounted to 84%.
Take `C[C@H]1CCCN1C(=O)c1nc(C(=O)NCC(C)(C)O)sc1-c1ccc(C(O)(C(F)(F)F)C(F)(F)F)cc1Cl`: the solubility in data set [8] was 6.3 µM (≈ 3.7 µg/mL); in data set [6] it was < 4 µM; in [10] it was 130 µM (≈ 76.4 µg/mL); in data set [7], 6.3 µM (≈ 3.7 µg/mL). For the same compound, the dissociation constant Kd turned out to be 4900 nM in [2] and 0.63 nM in [12]. Besides, the Activity is 3.6% in data set [3] and 11% in data set [11]. Besides, in data set [5], the IC50 is 240 nM. The activity at 10 µM in [9] was found to be 27%.
In data set [3], `C[C@H](NS(=O)(=O)c1ccc(-c2sc(C(=O)NCC(C)(C)O)nc2C(=O)N2CCC(F)CC2)c(Cl)c1Cl)C(F)(F)F` came in with an Activity of 13%.
In the case of `Cc1cc(C(O)(C(F)(F)F)C(F)(F)F)ccc1-c1sc(C(=O)NCC(C)(C)O)nc1C(=O)N1CCCC[C@@H]1C`, the solubility in data set [8] was < 4 µM; in data set [6], < 4 µM; in data set [10] it was 4.6 µM (≈ 2.68 µg/mL); in [7] it was < 4 µM. Moreover, the Kd is 1400 nM in [2] and 0.25 nM in [12]. Besides, the Activity in [3] is listed as 8%; in data set [11], 10%. Moreover, in data set [5], the IC50 came out at 160 nM. Moreover, in data set [9], the activity at 10 µM was 24%.
Take `C[C@H]1CCCCN1C(=O)c1nc(C(=O)NCC(C)(C)O)sc1-c1ccc(C(O)(C(F)(F)F)C(F)(F)F)cc1Cl`: the solubility in data set [8] is < 4 µM; in data set [6], < 4 µM; in data set [10], 77 µM (≈ 46.4 µg/mL); in data set [7], < 4 µM. Moreover, the figures for the Kd in [2] and in [12] were 430 nM and 0.058 nM, respectively. This compound also registered an Activity in data set [3] of 13%. Moreover, the IC50 in data set [5] worked out at 81 nM. In data set [9], the activity at 10 µM turned out to be 25%.
In the case of `CC(C)(O)CNC(=O)c1nc(C(=O)N2CCC(F)CC2)c(-c2ccc(C(O)(C(F)(F)F)C(F)(F)F)c(Cl)c2Cl)s1`, the Kd in [2] was 1900 nM. The Activity in [3] is listed as 1.5%. Also, the activity at 5 µM in data set [4] stood at 14%. Also, the IC50 in data set [5] is 890 nM. The solubility in data set [6] and in data set [7] was < 4 µM throughout.
Consider `CN(C(=O)c1nc(C(=O)NCC(C)(C)O)sc1-c1ccc(C(O)(C(F)(F)F)C(F)(F)F)c(Cl)c1Cl)C1CCC1`, for which the IC50 in [1] was determined as 9.4 nM. Besides, the Kd in data set [2] turned out to be 2300 nM; in data set [12], 0.4 nM. Besides, in [3], the Activity is given as 1.9%. The activity at 5 µM in [4] turned out to be 9.1%.
For `CCN(CC)C(=O)c1nc(C(=O)NCC(C)(C)O)sc1-c1ccc(C(O)(C(F)(F)F)C(F)(F)F)c(Cl)c1Cl`, the Kd in data set [2] worked out at 3500 nM. The values for the Activity in [3] and in data set [11] were 32% and 16%, respectively. The Drug uptake result in data set [13] is reported as “Active”. The activity at 5 µM in data set [4] stood at 76%. Further, the solubility in [6] and in [7] was < 4 µM each time.
Compound `Cc1c(C(N)=O)cc(-c2ccc(C(O)(C(F)(F)F)C(F)(F)F)cc2)n1CC1CCCCC1` registered an IC50 in data set [1] of 1700 nM.
Regarding `CCN(C(=O)c1nc(C(=O)NCC(C)(C)O)sc1-c1ccc(C(O)(C(F)(F)F)C(F)(F)F)c(Cl)c1Cl)C1CCC1`, the results for the dissociation constant Kd in data set [2] and in data set [12] were 1100 nM and 0.2 nM, respectively. The compound further showed an Activity in data set [3] of 10%. Moreover, the activity at 5 µM in [4] stood at 21%.
Consider `C[C@H]1CC(F)(F)CN1C(=O)c1nc(C(=O)NCC(C)(C)O)sc1-c1ccc(C(O)(C(F)(F)F)C(F)(F)F)c(Cl)c1Cl`, for which the dissociation constant (Kd) in data set [2] stood at 2300 nM. In data set [3], this compound showed an Activity of 27%. The activity at 5 µM in data set [4] was 50%. Further, the IC50 in data set [5] was 120 nM. Besides, the solubility in data set [6] and in [7] was < 4 µM throughout.
`CCN(CC)C(=O)c1nc(C(=O)N2C[C@H](O)C[C@H](O)C2)sc1-c1ccc(C(O)(C(F)(F)F)C(F)(F)F)c(Cl)c1Cl`: the Kd in [2] turned out to be 13000 nM. The same compound had an Activity in data set [3] of 2.7%. Moreover, in data set [4], the activity at 5 µM worked out at 4.7%. Also, the IC50 in data set [5] came to 190 nM. Besides, the figures for the solubility in data set [6] and in data set [7] were 41 µM (≈ 26.2 µg/mL) and 52 µM (≈ 33.2 µg/mL), respectively. Also, the peak level in [14] (Cmax) was 100 nM.
With `C[C@H]1CCCN1C(=O)c1nc(C(=O)NCC(C)(C)O)sc1-c1ccc(C(O)(C(F)(F)F)C(F)(F)F)cc1C(F)F`, the solubility is 22 µM (≈ 13.3 µg/mL) in data set [8], 13 µM (≈ 7.85 µg/mL) in data set [6], 99 µM (≈ 59.7 µg/mL) in data set [10] and 12 µM (≈ 7.24 µg/mL) in data set [7]. Moreover, in data set [2], the dissociation constant Kd came to 13000 nM. Besides, the Activity is listed as 27% in data set [3] and 33% in [11]. For the same compound, the activity at 10 µM in [9] came to 74%.
As for `Cc1cc(C(O)(C(F)(F)F)C(F)(F)F)ccc1-c1sc(C(=O)NCC(C)(C)O)nc1C(=O)N1CCC[C@@H]1C`, the solubility in data set [8] was found to be 63 µM (≈ 35.8 µg/mL); in data set [6], 86 µM (≈ 48.8 µg/mL); in data set [10], 250 µM (≈ 142 µg/mL); in data set [7], 35 µM (≈ 19.9 µg/mL). Also, the Kd in data set [2] is 15000 nM. Also, the Activity in [3] is given as 12%; in [11], 16%. Further, the IC50 in data set [5] came out at 530 nM. Moreover, the activity at 10 µM in [9] amounted to 31%.

Values taken from ChEMBL document CHEMBL6134884, “Identification of JNJ-61803534, a RORγt Inverse Agonist for the Treatment of Psoriasis” (J Med Chem, 2025).
